Where two headings read alike, the source gives them in different places. Some results are limits rather than exact numbers.

The values that follow come from PMC7717710, “Synthesis, computational studies and assessment of in vitro inhibitory activity of umbelliferon-based compounds against tumour-associated carbonic anhydrase isoforms IX and XII” (Journal of Enzyme Inhibition and Medicinal Chemistry, 2020).

For data set [1], the target named is T1, hCA I (Homo sapiens, UniProt P00915).
T1 construct: made in house
T1 sequence (P00915 whole entry): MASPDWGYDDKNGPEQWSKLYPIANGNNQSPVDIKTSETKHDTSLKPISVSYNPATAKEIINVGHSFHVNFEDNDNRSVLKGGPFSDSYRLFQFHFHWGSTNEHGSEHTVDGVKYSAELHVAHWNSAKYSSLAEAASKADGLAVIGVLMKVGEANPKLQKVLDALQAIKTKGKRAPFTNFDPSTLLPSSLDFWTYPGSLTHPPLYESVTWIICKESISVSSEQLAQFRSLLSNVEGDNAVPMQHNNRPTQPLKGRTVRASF
Also noted: method as in PMID 29197732. The settings on record: reference compounds; read-out: Inhibition data (Ki) hCA I; cited from earlier work.

For data set [2], the target named is T2, hCA II (Homo sapiens, UniProt P00918).
T2 construct: made in house
Also noted: method as in PMID 29197732. To be noted: reference compounds; read-out: Inhibition data (Ki) hCA II; cited from earlier work.

Another data set has as its target T3, hCA XII (Homo sapiens, UniProt O43570).
T3 construct: made in house
The experiment in a line: stopped-flow CO2 hydrase assay, hCA XII. It counts as biochemical. The settings on record: for Ki: recombinant hCA XII, stopped-flow CO2 hydration, 15 min preincubation, errors ± 10%, 3 assays, read-out: Inhibition data (Ki) hCA XII. Here is the method:
(§1) An applied photophysics stopped-flow instrument has been used for assaying the CA catalysed CO2 hydration activity. Phenol red (at a concentration of 0.2 mM) has been used as an indicator, working at the absorbance maximum of 557 nm, with 10–20 mM Hepes (pH 7.5) or Tris (pH 8.3) as buffers, and 20 mM Na2SO4 or 20 mM NaClO4 (for maintaining constant the ionic strength), following the initial rates of the CA-catalysed CO2 hydration reaction for a period of 10–100 s. The CO2 concentrations ranged from 1.7 to 17 mM for the determination of the kinetic parameters and inhibition constants. For each inhibitor, at least six traces of the initial 5-10% of the reaction have been used for determining the initial velocity. The uncatalyzed rates were determined in the same manner and subtracted from the total observed rates. Stock solutions of inhibitor (10 mM) were prepared in distilled-deionized water and dilutions up to 0.01 nM were done thereafter with distilled-deionized water. Inhibitor and enzyme solutions were preincubated together for 15 min at room temperature prior to assay to allow for the formation of the E–I complex. The inhibition constants were obtained by non-linear least-squares methods using PRISM 3, as reported earlier and represent the mean from at least three different determinations. CA isoforms were recombinant ones obtained as reported earlier by this group.
(§2) This small series of coumarin derivatives 7–11, 15–17 were subjected to the stopped-flow CO2 hydrase assays to evaluate the binding affinity against the tumour-associated hCA IX and XII over ubiquitous isoforms hCA I and II.

Data set [3] concerns the target T1, hCA I. The experiment in a line: stopped-flow CO2 hydrase assay, hCA I. It counts as biochemical. To be noted: recombinant hCA I; stopped-flow CO2 hydration; 15 min preincubation; errors ± 10%, 3 assays; read-out: Inhibition data (Ki) hCA I. On the procedure:
as §1, §2

In data set [4] the target is T2, hCA II. The experiment in a line: stopped-flow CO2 hydrase assay, hCA II. The settings on record: recombinant hCA II; stopped-flow CO2 hydration; 15 min preincubation; errors ± 10%, 3 assays; read-out: Inhibition data (Ki) hCA II. It counts as biochemical. On the procedure: as §1, §2
The next data set addresses T4, hCA IX (Homo sapiens, UniProt Q16790).
T4 construct: made in house
Kind of data set: stopped-flow CO2 hydrase assay, hCA IX. It counts as biochemical. To be noted: recombinant hCA IX; stopped-flow CO2 hydration; 15 min preincubation; errors ± 10%, 3 assays; read-out: Inhibition data (Ki) hCA IX. Here is the method: as §1, §2

T3 sequence (O43570 25-354): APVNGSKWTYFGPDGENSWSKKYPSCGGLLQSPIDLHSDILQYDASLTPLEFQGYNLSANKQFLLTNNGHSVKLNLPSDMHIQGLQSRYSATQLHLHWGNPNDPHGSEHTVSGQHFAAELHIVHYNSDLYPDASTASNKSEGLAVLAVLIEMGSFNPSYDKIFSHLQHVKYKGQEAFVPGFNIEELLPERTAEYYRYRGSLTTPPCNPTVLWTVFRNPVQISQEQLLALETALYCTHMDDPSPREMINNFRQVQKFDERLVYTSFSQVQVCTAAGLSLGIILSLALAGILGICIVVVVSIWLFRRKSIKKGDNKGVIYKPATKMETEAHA

Turning to `O=c1cc(-c2ccccc2)c2ccc(O)cc2o1` [compound 3, 7-hydroxy-4-phenyl-2H-chromen-2-one], the Ki on hCA I [1] and on hCA II [2] was over 10 µM in each case.

Regarding `Cc1c(O)ccc2c(-c3ccc(N)cc3)cc(=O)oc12` [compound 4, 4-(4-aminophenyl)-7-hydroxy-8-methyl-2H-chromen-2-one], the Ki on hCA I [1] and on hCA II [2] was over 10 µM each time.

In turn, `CC(=O)Oc1ccc2c(-c3ccccc3)cc(=O)oc2c1` [compound 7, 2-oxo-4-phenyl-2H-chromen-7-yl acetate] displayed a melting point of 129 to 131 °C. Besides, the Ki on hCA XII came to 0.734 µM. Further, the Ki at hCA I [3] was over 10 µM. For the same compound, the Ki at hCA II [4] is over 10 µM. In addition, the Ki at hCA IX came out at 0.0562 µM.

Consider `CCC(=O)Oc1ccc2c(-c3ccccc3)cc(=O)oc2c1` [compound 8, 2-Oxo-4-phenyl-2H-chromen-7-yl propionate], for which the melting point lay in the range of 172 to 174 °C. In addition, the Ki at hCA XII stood at 0.523 µM. The Ki at hCA I [3] was over 10 µM. The Ki at hCA II [4] is over 10 µM. For the same compound, the Ki on hCA IX is 0.0978 µM.

Consider `O=C(Oc1ccc2c(-c3ccccc3)cc(=O)oc2c1)c1ccccc1` [compound 9, 2-Oxo-4-phenyl-2H-chromen-7-yl benzoate], for which the Ki at hCA XII is 0.385 µM; on hCA I [3], over 10 µM; on hCA II [4], over 10 µM; at hCA IX, 0.0218 µM.

For `CC(=O)c1c(O)ccc2c(-c3ccccc3)cc(=O)oc12` [compound 10, 8-Acetyl-7-hydroxy-4-phenyl-2H-chromen-2-one], the Ki on hCA XII was 0.0249 µM; on hCA I [3] it was over 10 µM; on hCA II [4] it was over 10 µM; at hCA IX it was 0.177 µM.

Consider `CCC(=O)c1c(O)ccc2c(-c3ccccc3)cc(=O)oc12` [compound 11, 7-Hydroxy-4-phenyl-8-propanoyl-2H-chromen-2-one], for which the melting point fell in the range of 172 to 174 °C. For the same compound, the “fold less active/efficient towards hCA XII than parent compound 3” value at hCA XII (ratio of Ki values versus compound 3) was found to be 10 fold. In addition, the Ki on hCA XII came out at 0.868 µM. For the same compound, the Ki at hCA I [3] was over 10 µM. Besides, the Ki on hCA II [4] is over 10 µM. Also, the Ki at hCA IX worked out at 3.04 µM.

On to `O=c1cc(-c2ccccc2)c2ccc(O)c(Cl)c2o1` [compound 15, 8-Chloro-7-hydroxy-4-phenyl-2H-chromen-2-one], for which the melting point fell in the range of 214 to 215 °C. For the same compound, on hCA XII, the Ki was 0.032 µM. Moreover, on hCA I [3], the Ki was over 10 µM. Besides, the Ki on hCA II [4] is over 10 µM. The Ki at hCA IX worked out at 0.261 µM.

The compound `O=c1cc(-c2ccc([N+](=O)[O-])cc2)c2ccc(O)c(Cl)c2o1` [compound 16, 8-Chloro-7-hydroxy-4-(4-nitrophenyl)-2H-chromen-2-one] registered a melting point of 303 to 305 °C.

Consider `Nc1ccc(-c2cc(=O)oc3c(Cl)c(O)ccc23)cc1` [compound 17, 4-(4-aminophenyl)-8-chloro-7-hydroxy-2H-chromen-2-one], for which the melting point fell in the range of 313 to 315 °C. The Ki on hCA XII was 0.0293 µM. For the same compound, the Ki on hCA I [3] was over 10 µM. Also, the Ki on hCA II [4] was over 10 µM. Also, the Ki at hCA IX worked out at 0.18 µM.

A word on the Ki: it is the equilibrium dissociation constant of an inhibitor or competing ligand from its target. The melting point is the temperature, or range, at which the solid turns liquid.
